Calls of active or inactive are those of the source. The calls are words filed in the database; no cut-off is given here.

Nine molecules from ChEMBL document CHEMBL4414597, “Polyketides from Marine-Derived Aspergillus porosus: Challenges and Opportunities for Determining Absolute Configuration” (J Nat Prod, 2019) can be followed below.

Data set [1] deals with Staphylococcus aureus. The data set can be described thus: Antibacterial activity against methicillin-resistant Staphylococcus aureus ATCC BAA-41 assessed as growth inhibition at 0.125 mg/m by microbroth dilution method relative to control. Format: functional.
In data set [2] the test system is Pseudomonas aeruginosa. The data set is described as follows: Antibacterial activity against Pseudomonas aeruginosa ATCC 15442 by microbroth dilution method. Type of data set: functional, organism-based.
Data set [3] relates to Staphylococcus aureus. The data set can be described thus: Antibacterial activity against Staphylococcus aureus ATCC 25923 by microbroth dilution method. Type of data set: functional, organism-based.
The test system of data set [4] is HCT-116. The data set is described as follows: Cytotoxicity against human HCT116 cells assessed as reduction in cell viability by MTT assay. Type of data set: functional, cell-based.
Data set [5] is described as follows: Stability of compound in methanol. Format: physicochemical.
Data set [6] relates to Staphylococcus aureus. The data set can be described thus: Antibacterial activity against methicillin-resistant Staphylococcus aureus ATCC BAA-41 by microbroth dilution method. Format: functional, organism-based.
In data set [7] the test system is Staphylococcus aureus. The data set can be described thus: Antibacterial activity against Staphylococcus aureus ATCC 25923 assessed as growth inhibition at 0.125 mg/m by microbroth dilution method relative to control. Format: functional.
Data set [8] deals with Pseudomonas aeruginosa. The data set can be described thus: Antibacterial activity against Pseudomonas aeruginosa ATCC 15442 assessed as growth inhibition at 0.125 mg/ml by microbroth dilution method relative to control. Type of data set: functional. The note with it: read-out: GI.
Data set [9] relates to HCT-116. The data set is described as follows: Cytotoxicity against human HCT116 cells assessed as assessed as growth inhibition at 200 uM by MTT assay relative to control. Format: functional. The conditions noted are these: read-out: GI.
Data set [10] relates to Staphylococcus aureus. The data set is described as follows: Antibacterial activity against multi-resistant Staphylococcus aureus ATCC BAA-44 by microbroth dilution method. Format: functional, organism-based.
The nature of data set [11]: Metal chelating activity of the compound assessed as Fe2+-compound complex formation by measuring absorbance at > 50 uM in presence of ferrozine by spectrophotometric method.
A short description of data set [12]: Antioxidant activity assessed as DPPH radical scavenging activity at > 50 uM and measure every 10 mins for 30 mins subsequently measured every 30 mins for 4 hrs by spectrophotometric method. Type of data set: functional.

`CN[C@H](CC(C)C)C(=O)N[C@H]1C(=O)N[C@@H](CC(N)=O)C(=O)N[C@H]2C(=O)N[C@H]3C(=O)N[C@H](C(=O)N[C@H](C(=O)O)c4cc(O)cc(O)c4-c4cc3ccc4O)[C@H](O)c3ccc(c(Cl)c3)Oc3cc2cc(c3O[C@@H]2O[C@H](CO)[C@@H](O)[C@H](O)[C@H]2O[C@H]2C[C@](C)(N)[C@H](O)[C@H](C)O2)Oc2ccc(cc2Cl)[C@H]1O` [VANCOMYCIN]: the “growth inhibition (GI)” value with Staphylococcus aureus [1] was 100%.

As for `C=C[C@]1(C)C=C2C(=O)[C@@]3(O)OC(=O)[C@@]4(CCCC(C)(C)[C@H]34)[C@@]2(O)CC1` [SPHAEROPSIDIN A], the 50% inhibitory concentration (IC50) with Pseudomonas aeruginosa [2] was over 100 µM; in the data set with Staphylococcus aureus [3], 32.6 µM; in the data set with HCT-116 [4], 4.9 µM; in the data set on Staphylococcus aureus [6], 35.3 µM. For the same molecule, the Stability result in data set [5] is reported as “Stable”.

`NC[C@H]1O[C@H](O[C@H]2[C@H](O)[C@@H](O[C@H]3O[C@H](CO)[C@@H](O)[C@H](N)[C@H]3O)[C@H](N)C[C@@H]2N)[C@H](O)[C@@H](O)[C@@H]1O` [KANAMYCIN]: in the data set on Staphylococcus aureus [7], the “growth inhibition (GI)” value was found to be 100%. Also, in the data set with Pseudomonas aeruginosa [8], the inhibition of growth at 125 µg/mL came out at 100%.

For `COc1cc([C@@H]2c3cc4c(cc3[C@@H](O[C@@H]3O[C@@H]5CO[C@@H](C)O[C@H]5[C@H](O)[C@H]3O)[C@H]3COC(=O)[C@H]23)OCO4)cc(OC)c1O` [ETOPOSIDE], the inhibition of growth at 200 µM with HCT-116 [9] was determined as 82.8%.

Regarding `CC(=O)Cc1cc(O)cc(O)c1CC(C)C(=O)C(C)C(=O)/C(C)=C/C(C)=C/C(C)C(C)O` (configuration not stated), the outcome (with Staphylococcus aureus [10]; in the data set on Pseudomonas aeruginosa [2]; in the data set with Staphylococcus aureus [3]; in the data set with HCT-116 [4]; in data set [11]; in the data set on Staphylococcus aureus [6]) was inactive. Moreover, the result in data set [12] was inactive.

For `CC(=O)Cc1cc(O)cc2c1CC(C)C(O)(C(C)C(=O)/C(C)=C/C(C)=C/C(C)C(C)O)O2` (configuration not stated), the result (in the data set on Staphylococcus aureus [10]; in the data set on Pseudomonas aeruginosa [2]; in the data set on Staphylococcus aureus [3]; in the data set with HCT-116 [4]; in [11]; in the data set with Staphylococcus aureus [6]) was inactive. In addition, in [12], the outcome was inactive.

On to `COc1cc(O)cc(CC(C)=O)c1C[C@@H](C)C(=O)[C@H](C)C(=O)/C(C)=C/C(C)=C/[C@H](C)[C@H](C)O`, for which the result (in the data set on Staphylococcus aureus [10]; with Pseudomonas aeruginosa [2]; in the data set with Staphylococcus aureus [3]; with HCT-116 [4]; in data set [11]; in the data set with Staphylococcus aureus [6]) was inactive. In addition, the outcome in data set [12] was inactive.

As to `C=C[C@]1(C)C=C2C(=O)[C@]3(O)OC(=O)[C@@]4(CCCC(C)(C)[C@@H]43)[C@H]2CC1`, the concentration for half-maximal inhibition (IC50) in the data set with Pseudomonas aeruginosa [2] is over 100 µM; in the data set on Staphylococcus aureus [3], 71.6 µM; with HCT-116 [4] it was 32.7 µM; in the data set with Staphylococcus aureus [6] it was 77.8 µM. For the same molecule, the Stability entry in data set [5] is “Unstable”.

As to `COc1cc(O)cc(CC(C)=O)c1C[C@@H](C)C(=O)[C@@H](C)C(=O)/C(C)=C/C(C)=C/[C@H](C)[C@H](C)O`, the outcome (in the data set with Staphylococcus aureus [10]; with Pseudomonas aeruginosa [2]; in the data set on Staphylococcus aureus [3]; with HCT-116 [4]; in data set [11]; in the data set with Staphylococcus aureus [6]) was inactive. Besides, the outcome in data set [12] was inactive.
